pIC50: −log10 of the molar value. Like-named read-outs stand apart in the source and are kept apart here.
Tests used:
[1] = system: DLD1 BRCA2 (−/−) cells; assay: 7-day cell viability assay (CellTiter-Glo), DLD1 BRCA2 (−/−); type: cell-based, human; conditions: n=2, read-out: Viability IC50 (uM) DLD1 BRCA2 null
Summary of the method: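 7-day growth assay in DLD1 cells with or without BRCA2; seeding densities chosen to keep log-linear growth. Compound: 10 uM top, 3-fold, 9 points. Endpoint: CTG ATP luminescence at RT.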

[2] = target: biotinylated Avi-POLθ[2-894] (Homo sapiens (Human), UniProt O75417); assay: POLθ ATPase assay (ADP-Glo); conditions: n=2, read-out: Biochemical ATPase ADPGlo IC50
Chain of biotinylated Avi-POLθ[2-894] (O75417 2-894): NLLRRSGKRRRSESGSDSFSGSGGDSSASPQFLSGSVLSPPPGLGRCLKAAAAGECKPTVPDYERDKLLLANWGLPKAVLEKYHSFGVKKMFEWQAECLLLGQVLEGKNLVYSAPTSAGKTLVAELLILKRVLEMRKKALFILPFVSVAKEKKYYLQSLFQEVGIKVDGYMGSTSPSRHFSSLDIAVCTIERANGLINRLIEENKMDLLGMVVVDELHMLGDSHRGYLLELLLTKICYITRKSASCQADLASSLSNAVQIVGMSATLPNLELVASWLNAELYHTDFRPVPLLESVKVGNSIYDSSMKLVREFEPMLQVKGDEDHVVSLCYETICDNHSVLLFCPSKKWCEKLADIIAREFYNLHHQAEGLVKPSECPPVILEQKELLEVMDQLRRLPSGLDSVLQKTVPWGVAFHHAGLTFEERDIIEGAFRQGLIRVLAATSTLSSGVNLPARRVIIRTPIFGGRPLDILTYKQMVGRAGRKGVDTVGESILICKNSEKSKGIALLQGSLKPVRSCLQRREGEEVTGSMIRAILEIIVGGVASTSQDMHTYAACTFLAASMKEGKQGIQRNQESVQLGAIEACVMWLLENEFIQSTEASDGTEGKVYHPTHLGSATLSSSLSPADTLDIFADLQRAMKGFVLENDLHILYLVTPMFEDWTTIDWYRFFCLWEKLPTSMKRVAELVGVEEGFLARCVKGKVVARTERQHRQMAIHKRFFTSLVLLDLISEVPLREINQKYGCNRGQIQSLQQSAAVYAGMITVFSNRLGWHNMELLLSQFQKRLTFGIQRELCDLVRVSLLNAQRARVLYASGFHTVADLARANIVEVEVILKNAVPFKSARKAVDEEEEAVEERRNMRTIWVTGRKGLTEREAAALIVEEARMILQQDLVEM

[3] = system: DLD1 WT cells; assay: 7-day cell viability assay (CellTiter-Glo), DLD1 parental (WT); type: cell-based, human; conditions: n=2
[4] = Homo sapiens, DLD-1, 168 h, 7-day viability
[5] = Homo sapiens, DLD-1, 168 h, 7-day CellTiter-Glo

Row | Structure (SMILES) | IC50 [1, 4] | pIC50 [2] | IC50 [1, 5] | pIC50 ([2]; POLθ ATPase, ADP-Glo) | IC50 [3, 4] | IC50 [3, 5] | IC50 ([1]; 7-day CellTiter-Glo) | IC50 ([3]; 7-day CellTiter-Glo)
1 | COc1cnc(Cl)cc1-c1cc(C)ncc1C(=O)Nc1nc2c(s1)CN(C(=O)[C@H]1C[C@H](C(F)(F)F)C1)C2 [Example 164, 4-(5-Cyano-2-methoxyphenyl)-6-methyl-N-(5-(pyridin-3-ylsulfonyl)-5,6-dibydro-4H-pyrrolo[3,4-d]thiazol-2-yl)nicotinamide] | 0.1 to 0.25 µM | 7.82 to 9.00 | – | – | ≥ 10 µM | – | – | –
2 | COc1cnc(Cl)cc1-c1cc(C)ncc1C(=O)Nc1nc2c(s1)CN(C(=O)[C@H]1C[C@@H](OC)C1)C2 [Example 171] | 0.1 to 0.25 µM | 7.82 to 9.00 | – | – | ≥ 10 µM | – | – | –
3 | COc1cnc(Cl)cc1-c1cc(C)ncc1C(=O)Nc1nc2c(s1)CN(C(=O)C1CC(CC(F)F)C1)C2 (stereo not drawn) [Example 177] | 0.001 to 0.1 µM | 7.82 to 9.00 | – | – | ≥ 10 µM | – | – | –
4 | COc1ccc(C#N)cc1-c1cc(C)ncc1C(=O)Nc1nc2c(s1)CN(C(=O)C1CC(OC(F)F)C1)C2 (stereo not drawn) [Example 179] | 0.001 to 0.1 µM | 7.82 to 9.00 | – | – | ≥ 10 µM | – | – | –
5 | COc1cnc(Cl)cc1-c1cc(C)ncc1C(=O)Nc1nc2c(s1)CN(C(=O)[C@H]1C[C@@H](C#N)C1)C2 [Example 190] | 0.25 to 0.5 µM | 7.82 to 9.00 | – | – | ≥ 10 µM | – | – | –
6 | COc1cnc(Cl)cc1-c1cc(C)ncc1C(=O)Nc1nc2c(s1)CN(C(=O)C1CC(OC(F)(F)F)C1)C2 (stereo not drawn) [Example 196] | 0.001 to 0.1 µM | 7.82 to 9.00 | – | – | ≥ 10 µM | – | – | –
7 | COc1cnc(Cl)cc1-c1cc(C)ncc1C(=O)Nc1nc2c(s1)CN(C(=O)[C@@H]1CCCCO1)C2 [Example 216, (S) 2′-chloro-5′-methoxy-6-methyl-N-(5-(tetrahydro-2H-pyran-2-carbonyl)-5,6-dihydro-4H-pyrrolo[3,4-d]thiazol-2-yl)-[4,4′-bipyridine]-3-carboxamide] | 0.1 to 0.25 µM | 7.82 to 9.00 | – | – | ≥ 10 µM | – | – | –
8 | COc1ccc(C#N)cc1-c1cc(C)ncc1C(=O)Nc1nc2c(s1)CN(C(=O)C1CC(C(F)F)C1)C2 (stereo not drawn) [Example 244] | 0.5 to 2 µM | 7.82 to 9.00 | – | – | ≥ 10 µM | – | – | –
9 | COc1ccc(C#N)cc1-c1cc(C)ncc1C(=O)Nc1nc2c(s1)CN(S(=O)(=O)NC(C)C)C2 [Example 269] | ≥ 2 µM | 7.82 to 9.00 | – | – | ≥ 10 µM | – | – | –
10 | CCCNS(=O)(=O)N1Cc2nc(NC(=O)c3cnc(C)cc3-c3cc(C#N)ccc3OC)sc2C1 [Example 270] | 0.5 to 2 µM | 7.82 to 9.00 | – | – | ≥ 10 µM | – | – | –
11 | COc1ccc(C#N)cc1-c1cc(C)ncc1C(=O)Nc1nc2c(s1)CN(C(=O)c1ccccn1)C2 [Example 276] | ≥ 2 µM | 7.82 to 9.00 | – | – | ≥ 10 µM | – | – | –
12 | CCNS(=O)(=O)N1Cc2nc(NC(=O)c3cnc(C)cc3-c3cc(C#N)ccc3OC)sc2C1 [Example 299] | 0.5 to 2 µM | 7.82 to 9.00 | – | – | ≥ 10 µM | – | – | –
13 | COc1ccc(C#N)cc1-c1cc(C)ncc1C(=O)Nc1nc2c(s1)CN(C(=O)c1ccc(C)cn1)C2 [Example 304] | 0.1 to 0.25 µM | 7.82 to 9.00 | – | – | ≥ 10 µM | – | – | –
14 | COc1ccc(C#N)cc1-c1cc(C)ncc1C(=O)Nc1nc2c(s1)CN(S(=O)(=O)c1ccccn1)C2 [Example 308] | ≥ 2 µM | 7.30 to 7.82 | – | – | ≥ 10 µM | – | – | –
15 | COc1ccccc1-c1cc(C)ncc1C(=O)Nc1nc2c(s1)CN(C(=O)OC(C)(C)C)C2 [Example 314] | 0.5 to 2 µM | 6.82 to 7.30 | – | – | 2 to 5 µM | – | – | –
16 | COc1cnc(Cl)cc1-c1cc(C)ncc1C(=O)Nc1nc2c(s1)CN(C(=O)C1CCC(C(F)F)CC1)C2 (stereo not drawn) [Example 406, (Cis and trans) 2′-chloro-N-(5-(4-(difluoromethyl)cyclohexane-1-carbonyl)-5,6-dihydro-4H-pyrrolo[3,4-d]thiazol-2-yl)-5′-methoxy-6-methyl-[4,4′-bipyridine]-3-carboxamide] | – | – | 0.001 to 0.1 µM | 7.82 to 9.00 | – | ≥ 10 µM | – | –
17 | COc1ccc(C#N)cc1-c1cc(C)ncc1C(=O)Nc1nc2c(s1)CN(C(=O)c1cccc(C(F)F)c1Cl)C2 [Example 487] | – | – | 0.001 to 0.1 µM | 7.82 to 9.00 | – | ≥ 10 µM | – | –
18 | COc1cnc(C(F)F)c(C(=O)N2Cc3nc(NC(=O)c4cnc(C)cc4-c4cc(Cl)ncc4OC)sc3C2)n1 [Example 503, 2′-Chloro-N-(5-(3-(difluoromethyl)-6-methoxypyrazine-2-carbonyl)-5,6-dihydro-4H-pyrrolo[3,4-d]thiazol-2-yl)-5′-methoxy-6-methyl-[4,4′-bipyridine]-3-carboxamdie] | – | – | – | 7.82 to 9.00 | – | – | 0.001 to 0.1 µM | ≥ 10 µM

More lines, main results first:

Row | IC50 [1, 4] | pIC50 [2] | IC50 [1, 5] | pIC50 ([2]; POLθ ATPase, ADP-Glo) | Structure (SMILES) | IC50 [3, 4] | IC50 [3, 5] | IC50 ([1]; 7-day CellTiter-Glo) | IC50 ([3]; 7-day CellTiter-Glo)
19 | 0.5 to 2 µM | 7.82 to 9.00 | – | – | COc1cnc(Cl)cc1-c1cc(C)ncc1C(=O)Nc1nc2c(s1)CN(C(=O)c1cn(C)nc1Cl)C2 [Example 161] | ≥ 10 µM | – | – | –
20 | 0.1 to 0.25 µM | 7.82 to 9.00 | – | – | COc1cnccc1C(=O)N1Cc2nc(NC(=O)c3cnc(C)cc3-c3cc(Cl)ncc3OC)sc2C1 [Example 168] | ≥ 10 µM | – | – | –
21 | 0.1 to 0.25 µM | 7.82 to 9.00 | – | – | COc1cnc(Cl)cc1-c1cc(C)ncc1C(=O)Nc1nc2c(s1)CN(C(=O)c1ncccc1OC)C2 [Example 169] | ≥ 10 µM | – | – | –
22 | 0.1 to 0.25 µM | 7.82 to 9.00 | – | – | COc1cnc(Cl)cc1-c1cc(C)ncc1C(=O)Nc1nc2c(s1)CN(C(=O)c1ccnn1C)C2 [Example 170] | ≥ 10 µM | – | – | –
23 | 0.001 to 0.1 µM | 7.82 to 9.00 | – | – | COc1cnc(Cl)cc1-c1cc(C)ncc1C(=O)Nc1nc2c(s1)CN(C(=O)c1cccnc1OC)C2 [Example 172] | ≥ 10 µM | – | – | –
24 | 0.1 to 0.25 µM | 7.82 to 9.00 | – | – | COc1cnc(Cl)cc1-c1cc(C)ncc1C(=O)Nc1nc2c(s1)CN(C(=O)c1ccc(O)cn1)C2 [Example 174] | ≥ 10 µM | – | – | –
25 | ≥ 2 µM | 7.82 to 9.00 | – | – | COc1cnc(Cl)cc1-c1cc(C)ncc1C(=O)Nc1nc2c(s1)CN(C(=O)c1cn(C(C)C)nc1C)C2 [Example 175] | ≥ 10 µM | – | – | –
26 | 0.001 to 0.1 µM | 7.82 to 9.00 | – | – | COc1cnc(Cl)cc1-c1cc(C)ncc1C(=O)Nc1nc2c(s1)CN(C(=O)c1ccnc(C)c1)C2 [Example 194] | ≥ 10 µM | – | – | –
27 | 0.25 to 0.5 µM | 7.82 to 9.00 | – | – | COc1cnc(Cl)cc1-c1cc(C)ncc1C(=O)Nc1nc2c(s1)CN(C(=O)c1ccn(C)n1)C2 [Example 197] | ≥ 10 µM | – | – | –
28 | 0.1 to 0.25 µM | 7.82 to 9.00 | – | – | COc1cnc(Cl)cc1-c1cc(C)ncc1C(=O)Nc1nc2c(s1)CN(C(=O)c1ccc(C)cn1)C2 [Example 199] | 5 to 10 µM | – | – | –
29 | – | – | 0.001 to 0.1 µM | 7.82 to 9.00 | CCn1ncc(Cl)c1C(=O)N1Cc2nc(NC(=O)c3cnc(C)cc3-c3cc(Cl)ncc3OC)sc2C1 [Example 393, 2′-chloro-N-(5-(4-chloro-1-ethyl-1H-pyrazole-5-carbonyl)-5,6-dihydro-4H-pyrrolo[3,4-d]thiazol-2-yl)-5′-methoxy-6-methyl-[4,4′-bipyridine]-3-carboxamide] | – | ≥ 10 µM | – | –
30 | 0.001 to 0.1 µM | 7.82 to 9.00 | – | – | COc1cnc(Cl)cc1-c1cc(C)ncc1C(=O)Nc1nc2c(s1)CN(C(=O)c1ccc(OC(F)(F)F)cn1)C2 [Example 394, 2′-chloro-5′-methoxy-6-methyl-N-(5-(5-(trifluoromethoxy)picolinoyl)-5,6-dihydro-4H-pyrrolo[3,4-d]thiazol-2-yl)-[4,4′-bipyridine]-3-carboxamide] | ≥ 10 µM | – | – | –
31 | – | – | 0.001 to 0.1 µM | 7.82 to 9.00 | COc1cnc(Cl)cc1-c1cc(C)ncc1C(=O)Nc1nc2c(s1)CN(C(=O)c1ccc(OC)c(Cl)n1)C2 [Example 395, 2′-chloro-N-(5-(6-chloro-5-methoxypicolinoyl)-5,6-dihydro-4H-pyrrolo[3,4-d]thiazol-2-yl)-5′-methoxy-6-methyl-[4,4′-bipyridine]-3-carboxamide] | – | ≥ 10 µM | – | –
32 | – | – | 0.001 to 0.1 µM | 7.82 to 9.00 | COc1cnc(Cl)cc1-c1cc(C)ncc1C(=O)Nc1nc2c(s1)CN(C(=O)c1cc(C(F)F)ccc1F)C2 [Example 398, 2′-chloro-N-(5-(5-(difluoromethyl)-2-fluorobenzoyl)-5,6-dihydro-4H-pyrrolo[3,4-d]thiazol-2-yl)-5′-methoxy-6-methyl-[4,4′-bipyridine]-3-carboxamide] | – | ≥ 10 µM | – | –
33 | 0.001 to 0.1 µM | 7.82 to 9.00 | – | – | COc1cnc(Cl)cc1-c1cc(C)ncc1C(=O)Nc1nc2c(s1)CN(C(=O)c1nccc(Cl)c1OC)C2 [Example 399, 2′-chloro-N-(5-(4-chloro-3-methoxypicolinoyl)-5,6-dihydro-4H-pyrrolo[3,4-d]thiazol-2-yl)-5′-methoxy-6-methyl-[4,4′-bipyridine]-3-carboxamide] | ≥ 10 µM | – | – | –
34 | 0.001 to 0.1 µM | 7.82 to 9.00 | – | – | COc1cnc(Cl)cc1-c1cc(C)ncc1C(=O)Nc1nc2c(s1)CN(C(=O)c1ccc(OC)c3ccnn13)C2 [Example 402] | ≥ 10 µM | – | – | –
35 | – | – | 0.001 to 0.1 µM | 7.82 to 9.00 | COc1cnc(Cl)cc1-c1cc(C)ncc1C(=O)Nc1nc2c(s1)CN(C(=O)c1ccc(Cl)c(OC)n1)C2 [Example 421] | – | 2 to 5 µM | – | –
36 | – | – | 0.001 to 0.1 µM | 7.82 to 9.00 | COc1cnc(Cl)cc1-c1cc(C)ncc1C(=O)Nc1nc2c(s1)CN(C(=O)c1cccn3nccc13)C2 [Example 424] | – | ≥ 10 µM | – | –
37 | – | – | 0.001 to 0.1 µM | 7.82 to 9.00 | COc1cnc(Cl)cc1-c1cc(C)ncc1C(=O)Nc1nc2c(s1)CN(C(=O)c1c(Cl)ccnc1OC)C2 [Example 460] | – | 5 to 10 µM | – | –

From patent US20250230171A1 (MOMA Therapeutics, Inc., priority 2023, published 2025)
